Patent US20060014723A1, “Anti-parasitic uses of borinic acid complexes” (priority 2004, published 2006)
Converted amounts (≈) assume the structure as drawn.

Experiments:
P. falciparum K1 = assay: Malaria in vitro screening model (3H-hypoxanthine incorporation); format: cell-based, Plasmodium falciparum; details: Plasmodium falciparum, K1
Experimental: […] P. falciparum K1 is used in this study. K1 (a clone originating from Thailand) is resistant to chloroquine and pyrimethamine. The strains are maintained in RPMI 1640 medium with 0.36 mM hypoxanthine, supplemented with 25 mM N 2-hydroxyethyipiperazine-N-2-ethane-sulphonic acid (HEPES), 25 mM NaHCO3, neomycin (100 U/mL) and 5 g/L of ALBUMAX® II (lipid-rich bovine serum albumin, GIBCO, Grand Island, N.Y., USA), together with 5% washed human A+ erythrocytes. All cultures and assays are conducted at 37° C. under an atmosphere of 4% CO2, 3% O2 and 93% N2. Cultures are kept in incubation chambers filled with the gas mixture. Subcultures are diluted to a parasitemia of between 0.1 and 0.5% and the medium is changed daily.
Antimalarial activity is assessed using an adaptation of the procedures described by Desjardins et al. (Antimicrob. Agents Chemother. 16:710-718, 1979), and Matile and Pink (In: Lefkovits, I. and Pernis, B. (Eds.), Immunological Methods Vol. IV, Academic Press, San Diego, pp. 221-234, 1990).
Stock drug solutions are prepared in 100% dimethylsulfoxide (DMSO) at 10 mg/mL, and heated or sonicated if necessary to dissolve the sample. After use, the stocks are kept at −20° C. For the assays, the compound is further diluted in serum-free culture medium and finally to the appropriate concentration in complete medium without hypoxanthine.
Assays are performed in sterile 96-well microtiter plates, each well containing 200 μl of parasite culture (0.15% parasitemia, 2.5% hematocrit) with or without serial drug solutions. Seven 2-fold dilutions are used, covering a range from […] to 0.078 μg/mL. For active compounds the highest concentration is lowered (e.g., to […]); for plant extracts the highest concentration is increased to 50 μg/mL. […] After 48 hours of incubation at 37° C., 0.5 μCi ^3H-hypoxanthine is added to each well. Cultures are incubated for a further 24 h before being harvested onto glass-fiber filters and washed with distilled water. The radioactivity is counted using a Betaplate liquid scintillation counter (Wallac, Zurich, Switzerland). The results are recorded as counts per minute per well at each drug concentration and expressed as percentage of the untreated controls. IC50 values are calculated from the sigmoidal inhibition curves using Microsoft EXCEL.

[1] = test system: T. b. rhodesiense STIB 900; assay: African sleeping sickness in vitro screening model (Alamar Blue); format: cell-based, Trypanosoma brucei rhodesiense; details: Trypanosoma brucei
Experimental: Bloodstream from trypomastigotes of the strains (a) and (c) are maintained in Minimal Essential Medium (MEM) with Earle's salts supplemented according to Baltz, et al., (EMBO J. 4:1273-1277, 1985) with 25 mM N-2-hydroxyethylpiperazine-N′-2-ethane-sulphonic acid (HEPES), 1 g/L additional glucose, 1% MEM non-essential amino acids (100×), 0.2 mM 2-mercaptoethanol, 2 mM sodium pyruvate, 0.1 mM hypoxanthine and 15% heat-inactivated horse serum.
All cultures and assays are conducted at 37° C. under an atmosphere of 5% CO2 in air.
After use the stocks are kept at −20° C. For the assays, the compound is further diluted in serum-free culture medium and finally to the appropriate concentration in complete medium without hypoxanthine.
Assays are performed in 96-well microtiter plates, each well containing 100 μL of culture medium with 8×10^3 bloodstream forms with or without a serial drug dilution. The highest concentration for the test compounds is 90 μg/mL. Seven 3-fold drug dilutions are used, covering a range from 90 μg/mL to 0.123 μg/mL. Each drug is tested in duplicate. Active compounds are tested twice for confirmation. The final result is the mean of the four individual IC50 values. After 72 hrs of incubation, the plates are inspected under an inverted microscope to assure growth of the controls and sterile conditions.
(§1) Ten μL of Alamar Blue (12.5 mg resazurin dissolved in 100 mL distilled water) are now added to each well and the plates are incubated for another 2 hours. Then the plates are read with a Spectramax GEMINI XS microplate fluorometer (Molecular Devices Cooperation, Sunnyvale, Calif., USA) using an excitation wavelength of 536 nm and an emission wave length of 588 nm.
IC50 values are determined using the microplate reader software Softmax Pro (Molecular Devices Cooperation, Sunnyvale, Calif., USA).

[2] = test system: Trypanosoma cruzi Tulahuen C2C4 strain; assay: Chagas disease in vitro screening model (beta-galactosidase strain in L-6 cells); format: cell-based; details: Trypanosoma cruzi, TULAHUEN, L6; read-out: T. cruzi IC50
Experimental: Trypanosoma cruzi Tulahuen C2C4 strain, containing the β-galactosidase (Lac Z) gene (Buckner et al., Antimicrob. Agents Chemother 40:2592-2597, 1996) is used for this study.
The infective amastigote and trypomastigote stages are cultivated in L-6 cells (a rat skeletal myoblast cell line) in RPMI 1640 medium supplemented with 2 mM L-glutamine and 10% heat-inactivated fetal bovine serum in 12.5 cm^2 tissue culture flasks. Amastigotes develop intracellularly, differentiate into trypomastigotes, and leave the host cell. These trypomastigotes infect new L-6 cells and are the stages used to initiate an infection in the assay. All cultures and assays are conducted at 37° C. under an atmosphere of 5% CO2 in air.
(§2) After use the stocks are kept at −20° C. For the assays, the compound is further diluted to the appropriate concentration using complete medium.
Assays are performed in sterile 96-well microtiter plates, each well containing 100 μl medium with 2×10^3 L-6 cells. After 24 hours, […] of a trypanosome suspension containing 5×10^3 trypomastigote bloodstream forms from culture are added to the wells. Forty-eight hours later, the medium is removed from the wells and replaced by […] fresh medium, with or without a serial drug dilution. At this point the L-6 cells should be infected with amastigotes and no free trypomastigotes should be in the medium. Seven 3-fold drug dilutions are used, covering a range from 90 μg/mL to 0.123 μg/mL. Each drug is tested in duplicate. Active compounds are tested twice for confirmation. After 96 hours of incubation the plates are inspected under an inverted microscope to assure growth of the controls and sterility.
Then the substrate CPRG/Nonidet (50 μl) is added to all wells. A colour reaction will become visible within 2-6 hours and can be read photometrically at 540 nm. Data are transferred into a graphics program (e.g., EXCEL), sigmoidal inhibition curves determined and IC50 values calculated.

[3] = test system: Leishmania donovani strain MHOM/ET1671L82; assay: Leishmaniasis in vitro screening model (axenic amastigotes, Alamar Blue); format: cell-based; details: Leishmania donovani; read-out: L. donovani IC50
Experimental: The Leishmania donovani strain MHOM/ET1671L82 (obtained from Dr. S. Croft, London School of Hygiene and Tropical Medicine) is used. The strain is maintained in the Syrian Golden hamster. Amastigotes are collected from the spleen of an infected hamster. Amastigotes are grown in axenic culture at 37° C. in SM medium (Cunningham I., J. Protozoal. 24:325-329, 1977) at pH 5.4 supplemented with 10% heat-inactivated fetal bovine serum (FBS) under an atmosphere of 5% CO2 in air.
as §2
Assays are performed in 96-well flat-bottom microtiter plates (Costar, Corning Inc.), each well containing 100 μl of culture medium with 105 amastigotes from axenic culture with or without a serial drug dilution. Concentration of amastigotes is determined in a CASY cell analyzing system (Scharfe System, Reutlingen, Germany). Before the amastigotes are counted, the parasite culture is passed twice through a 22-gauge needle to break up clusters of amastigotes.
The highest concentration for the test compounds is 90 μg/mL. Seven 3-fold dilutions are used, covering a range from […]. Each drug is tested in duplicate. Active compounds are tested twice for confirmation. After 72 hours of incubation, the plates are inspected under an inverted microscope to assure growth of the controls and sterile conditions.
as §1, with “then” for “now”, “wave length” for “wavelength”
Data are analyzed using the microplate reader software Softmax Pro (Molecular Devices Cooperation, Sunnyvale, Calif., USA). Decrease of fluorescence (i.e. inhibition) is expressed as percentage of the fluorescence of control cultures and plotted against the drug concentrations. The IC50 value is calculated from the sigmoidal inhibition curve by the software program.

| Structure (SMILES) | IC50 (P. falciparum K1) [µg/mL] | IC50 [1] [µg/mL] | IC50 [2] [µg/mL] | IC50 [3] [µg/mL] |
| --- | --- | --- | --- | --- |
| N#Cc1ccc(B(Oc2cccc3cccnc23)c2ccc(F)cc2)cc1 [Compound 22, (4-Cyanophenyl)(4-fluorophenyl)borinic acid quinolin-8-yl ester] | 1.46 (≈ 4.15 µM) | 0.325 (≈ 0.923 µM) | 0.845 (≈ 2.4 µM) | 0.34 (≈ 0.965 µM) |
| Cc1ccccc1B(Oc1cccc2cccnc12)c1cccc(Cl)c1 [Compound 25, (3-Chlorophenyl)(2-methylphenyl)borinic acid quinolin-8-yl ester] | 1.81 (≈ 5.06 µM) | 0.295 (≈ 0.825 µM) | 0.905 (≈ 2.53 µM) | 0.41 (≈ 1.15 µM) |
| N#Cc1cccc(B(Oc2cccc3cccnc23)c2cccc(F)c2)c1 [Compound 29, (3-Cyanophenyl)(3-fluorophenyl)borinic acid quinolin-8-yl ester] | 1.83 (≈ 5.2 µM) | 0.33 (≈ 0.937 µM) | 0.68 (≈ 1.93 µM) | 0.4 (≈ 1.14 µM) |
| Fc1cccc(B(Oc2cccc3cccnc23)c2ccccc2Cl)c1 [Compound 30, (2-Chlorophenyl)(3-fluorophenyl)borinic acid quinolin-8-yl ester] | 1.74 (≈ 4.81 µM) | 0.305 (≈ 0.843 µM) | 0.82 (≈ 2.27 µM) | 0.58 (≈ 1.6 µM) |
| Cc1cc(B(Oc2cccc3cccnc23)c2cccc(C#N)c2)ccc1Cl [Compound 31, (4-Chloro-3-methylphenyl)(3-cyanophenyl)borinic acid quinolin-8-yl ester] | 1.83 (≈ 4.78 µM) | 0.28 (≈ 0.732 µM) | 0.79 (≈ 2.06 µM) | 0.83 (≈ 2.17 µM) |
| N#Cc1cccc(B(Oc2cccc3cccnc23)c2cc(F)ccc2F)c1 [Compound 32, (3-Cyanophenyl)(2,5-difluorophenyl)borinic acid quinolin-8-yl ester] | 1.82 (≈ 4.92 µM) | 0.41 (≈ 1.11 µM) | 0.73 (≈ 1.97 µM) | 0.41 (≈ 1.11 µM) |
| N#Cc1cccc(B(Oc2cccc3cccnc23)c2ccccc2F)c1 [Compound 33, (3-Cyanophenyl)(2-fluorophenyl)borinic acid quinolin-8-yl ester] | 1.79 (≈ 5.08 µM) | 0.3 (≈ 0.852 µM) | 1.39 (≈ 3.95 µM) | 0.61 (≈ 1.73 µM) |
| Cc1cc(B(Oc2cccc3cccnc23)c2ccc(C#N)cc2)ccc1Cl [Compound 34, (4-Chloro-3-methylphenyl)(4-cyanophenyl)borinic acid quinolin-8-yl ester] | 1.39 (≈ 3.63 µM) | 0.23 (≈ 0.601 µM) | 0.82 (≈ 2.14 µM) | 0.07 (≈ 0.183 µM) |
| N#Cc1ccc(B(Oc2cccc3cccnc23)c2cc(F)ccc2F)cc1 [Compound 35, (4-Cyanophenyl)(2,5-difluorophenyl)borinic acid quinolin-8-yl ester] | 1.74 (≈ 4.7 µM) | 0.275 (≈ 0.743 µM) | 0.705 (≈ 1.9 µM) | 0.38 (≈ 1.03 µM) |
| Clc1ccccc1C=CBOc1cccc2cccnc12 [Compound 36, (2-Chlorophenyl)vinyl borinic acid quinolin-8-yl ester] | 1.5 (≈ 5.11 µM) | 0.18 (≈ 0.613 µM) | 0.785 (≈ 2.67 µM) | 0.39 (≈ 1.33 µM) |
| Fc1cccc(C=CBOc2cccc3cccnc23)c1 [Compound 39, (3-Fluorophenyl)vinyl borinic acid quinolin-8-yl ester] | 122 (≈ 440 µM) | 0.201 (≈ 0.725 µM) | 1.41 (≈ 5.09 µM) | 0.34 (≈ 1.23 µM) |
| Fc1ccc(F)c(B(Oc2cccc3cccnc23)c2ccc(Cl)cc2)c1 [Compound 40, (4-Chlorophenyl)(2,5-difluorophenyl)borinic acid quinolin-8-yl ester] | 1.72 (≈ 4.53 µM) | 0.295 (≈ 0.777 µM) | 0.89 (≈ 2.34 µM) | 0.59 (≈ 1.55 µM) |
| COc1ccc(B(Oc2cccc3cccnc23)c2ccc(Cl)cc2)cc1F [Compound 41, (4-Chlorophenyl)(3-fluoro-4-methoxyphenyl)borinic acid quinolin-8-yl ester] | 1.63 (≈ 4.16 µM) | 0.38 (≈ 0.97 µM) | 0.935 (≈ 2.39 µM) | 0.29 (≈ 0.74 µM) |
| Fc1cccc(B(Oc2cccc3cccnc23)c2ccc(Cl)cc2)c1F [Compound 42, (4-Chlorophenyl)(2,3-difluorophenyl)borinic acid quinolin-8-yl ester] | 1.83 (≈ 4.82 µM) | 0.47 (≈ 1.24 µM) | 1.04 (≈ 2.75 µM) | 0.43 (≈ 1.13 µM) |
| Fc1cccc(B(Oc2cccc3cccnc23)c2ccc(Cl)cc2F)c1 [Compound 43, (4-Chloro-2-fluorophenyl)(3-fluorophenyl)borinic acid quinolin-8-yl ester] | 1.83 (≈ 4.82 µM) | 0.4 (≈ 1.05 µM) | 0.825 (≈ 2.17 µM) | 0.02 (≈ 0.0527 µM) |
| Fc1cc(F)cc(B(Oc2cccc3cccnc23)c2ccc(Cl)cc2)c1 [Compound 44, (4-Chlorophenyl)(3,5-difluorophenyl)borinic acid quinolin-8-yl ester] | 1.87 (≈ 4.93 µM) | 0.275 (≈ 0.724 µM) | 0.71 (≈ 1.87 µM) | 0.5 (≈ 1.32 µM) |
